This note sets out measurements from ChEMBL document CHEMBL1201862, “PubChem BioAssay data set” (2004).

Among the test systems are OVCAR-8; NCI-H522; SK-MEL-5; PC-3; NCI-H460; SN12C; NCI-H226; SK-MEL-2; UO-31; UACC-62; OVCAR-4; MDA-MB-231; HT-29; A498; SF-539; MDA-N; HL-60; OVCAR-3; RPMI-8226; SR.
What all share (assay): NCI tumour cell line growth inhibition, 48 h

Each structure is given as a SMILES string.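 Grown in 96-well plates, cells were treated for 48 hours with each compound at five concentrations. Insufficient inhibition: endpoint recorded as highest concentration tested. Abbreviation: GI50, concentration required for 50% inhibition of growth.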 Calls of active or inactive are those of the source. Rule as the data show it: active = GI50 up to about 1.1 µM and inactive = higher. Some results are limits rather than exact numbers.

As to `O=C(Nc1ccccc1)OCCN=C1c2ccccc2C(Br)C(Br)c2ccccc21` (stereo not given), the GI50 with OVCAR-8 was 4.09 µM (inactive); in the experiment with NCI-H522, 5.37 µM (inactive); in the experiment on SK-MEL-5, 12.3 µM (inactive); with PC-3, 19.3 µM (inactive); with NCI-H460 it was 12.1 µM (inactive); with SN12C, 11.1 µM (inactive). Also, the GI50 is 12.6 µM (inactive) in the experiment with NCI-H226; 22.2 µM (inactive) in the experiment with SK-MEL-2; 2.02 µM (inactive) with UO-31; 11 µM (inactive) with UACC-62; 5.38 µM (inactive) in the experiment on OVCAR-4; 15.2 µM (inactive) in the experiment on MDA-MB-231. The GI50 in the experiment with HT-29 was 5.25 µM (inactive); in the experiment on A498, 13.2 µM (inactive); with SF-539 it was 5.07 µM (inactive); in the experiment with MDA-N, 3.82 µM (inactive); in the experiment with HL-60, 1.92 µM (inactive); in the experiment on OVCAR-3, 6.12 µM (inactive). Moreover, in the experiment on RPMI-8226, the GI50 was 4.37 µM (inactive).
On to `O=C1CC2(CCCc3sccc32)C(=O)N1` (stereo not given), for which the GI50 in the experiment on OVCAR-8, with NCI-H522, in the experiment on SK-MEL-5, in the experiment with PC-3, with NCI-H460 and in the experiment with SN12C was > 100 µM (inactive) each time. The GI50 in the experiment with NCI-H226, in the experiment with SK-MEL-2, in the experiment on UO-31, in the experiment on UACC-62, with OVCAR-4 and in the experiment on MDA-MB-231 was > 100 µM (inactive) throughout. The GI50 with HT-29, in the experiment on A498, in the experiment on SF-539, in the experiment with MDA-N, in the experiment on HL-60 and in the experiment with OVCAR-3 was > 100 µM (inactive) throughout. In addition, the GI50 with RPMI-8226 was > 100 µM (inactive).
`O=c1c(Cc2ccc(Cl)cc2)nnc2sc(-c3ccc(-c4ccc(Cl)cc4Cl)o3)nn12`: the GI50 in the experiment with OVCAR-8 is 48.6 µM (inactive); with NCI-H522 it was 52.8 µM (inactive); in the experiment on SK-MEL-5, > 100 µM (inactive); in the experiment on PC-3 it was 79.8 µM (inactive); with NCI-H460, 59.6 µM (inactive); with SN12C, 44.6 µM (inactive). In addition, the GI50 in the experiment with NCI-H226 was > 100 µM (inactive); in the experiment on SK-MEL-2, 36.7 µM (inactive); in the experiment with UO-31, 57.8 µM (inactive); with UACC-62, 63.1 µM (inactive); in the experiment with OVCAR-4, 42.9 µM (inactive); in the experiment on MDA-MB-231, 93.3 µM (inactive). Moreover, the GI50 in the experiment on HT-29 is 64.1 µM (inactive); in the experiment with A498, 41.5 µM (inactive); in the experiment on SF-539, 85.7 µM (inactive); in the experiment with MDA-N, 48 µM (inactive); in the experiment with HL-60, 23.2 µM (inactive); in the experiment with OVCAR-3 it was 34 µM (inactive). In the experiment on RPMI-8226, the GI50 is > 100 µM (inactive).
As to `CC(=O)OC1C(COC(=O)c2ccccc2)OC(Nc2ncc(-c3ccc(Br)cc3)s2)C(OC(=O)c2ccccc2)C1OC(=O)c1ccccc1` (stereo not given), the GI50 in the experiment on OVCAR-8, in the experiment on SR, in the experiment with NCI-H522, with SK-MEL-5, with PC-3 and in the experiment on NCI-H460 was > 100 µM (inactive) each time. Besides, the GI50 in the experiment on SN12C was > 100 µM (inactive); with NCI-H226 it was > 100 µM (inactive); in the experiment with SK-MEL-2 it was 14.5 µM (inactive); in the experiment with UO-31 it was > 100 µM (inactive); in the experiment on UACC-62 it was > 100 µM (inactive); in the experiment with OVCAR-4 it was > 100 µM (inactive). Besides, the GI50 with MDA-MB-231, with HT-29, in the experiment with MDA-N, in the experiment with OVCAR-3 and in the experiment with RPMI-8226 was > 100 µM (inactive) in each case.
`CC(=O)Oc1ccc2c(c1)oc1c3ccc(OC(C)=O)cc3n(C)c(=O)c21`: the GI50 with OVCAR-8 is 22.5 µM (inactive); with SR it was 33.5 µM (inactive); in the experiment with SK-MEL-5 it was 4.71 µM (inactive); in the experiment on PC-3 it was 22.1 µM (inactive); with NCI-H460, 36.3 µM (inactive); in the experiment on SN12C, 27.2 µM (inactive). Further, the GI50 in the experiment on NCI-H226 was 10.2 µM (inactive); with UO-31 it was 50.1 µM (inactive); in the experiment on UACC-62, 34.8 µM (inactive); in the experiment with MDA-MB-231 it was 27 µM (inactive); with HT-29 it was 31.8 µM (inactive); in the experiment with SF-539, 27.1 µM (inactive). Moreover, the GI50 with MDA-N is 32 µM (inactive); in the experiment with OVCAR-3, 32.5 µM (inactive).
Turning to `CC(Cc1ccc(O)cn1)(NC(=O)c1ccccc1)C(=O)O` (stereo not given), the GI50 in the experiment with OVCAR-8, with SR, in the experiment on NCI-H522, with SK-MEL-5, in the experiment with PC-3 and with NCI-H460 was > 100 µM (inactive) each time. Moreover, the GI50 in the experiment on NCI-H226, in the experiment on SK-MEL-2, in the experiment on UO-31, with UACC-62, with OVCAR-4 and with MDA-MB-231 was > 100 µM (inactive) in each case. Besides, the GI50 in the experiment with HT-29, in the experiment on SF-539, in the experiment with MDA-N, with HL-60, in the experiment on OVCAR-3 and in the experiment on RPMI-8226 was > 100 µM (inactive) throughout.
As to `CCOC(=O)c1cn(-c2ccccc2)c(=S)n2c1nc1ccccc12`, the GI50 with OVCAR-8 is 24.4 µM (inactive); in the experiment on SR it was 13.6 µM (inactive); in the experiment with SK-MEL-5 it was 23.1 µM (inactive); in the experiment with PC-3 it was 24.4 µM (inactive); in the experiment on NCI-H460 it was 61.4 µM (inactive); in the experiment on SN12C, > 70.1 µM (inactive). Further, the GI50 with NCI-H226 was 27.3 µM (inactive); in the experiment on SK-MEL-2, 32.9 µM (inactive); in the experiment with UO-31 it was 7.67 µM (inactive); in the experiment with UACC-62, 53.8 µM (inactive); in the experiment with OVCAR-4, 37.4 µM (inactive); in the experiment with MDA-MB-231, > 63.7 µM (inactive). Further, the GI50 in the experiment with HT-29 was 30.5 µM (inactive); in the experiment with A498, 23.9 µM (inactive); in the experiment with SF-539, 32.7 µM (inactive); with MDA-N, 41.1 µM (inactive); in the experiment on OVCAR-3, 52.2 µM (inactive); with RPMI-8226 it was 18.1 µM (inactive).
As for `O=C(c1nsc(Cl)c1Cl)N1CCCCC1`, the GI50 in the experiment on OVCAR-8, with SR, with SK-MEL-5, in the experiment with PC-3, in the experiment on SN12C and in the experiment on NCI-H226 was > 100 µM (inactive) throughout. Further, the GI50 in the experiment on UO-31 was 39.5 µM (inactive); in the experiment with UACC-62, > 100 µM (inactive); in the experiment with OVCAR-4 it was > 100 µM (inactive); in the experiment on MDA-MB-231, > 100 µM (inactive); in the experiment on HT-29, > 100 µM (inactive); in the experiment with SF-539, > 100 µM (inactive). Also, the GI50 in the experiment with MDA-N, in the experiment on HL-60, in the experiment with OVCAR-3 and in the experiment on RPMI-8226 was > 100 µM (inactive) each time.
With `CCSc1[nH]c(NC(=S)NC(=O)c2ccccc2Cl)c(C(N)=O)c1C(N)=O`, the GI50 in the experiment on OVCAR-8, with SR, with SK-MEL-5, in the experiment with PC-3, with SN12C and in the experiment on UACC-62 was > 10 µM (inactive) throughout. For the same molecule, the GI50 in the experiment on OVCAR-4, in the experiment with MDA-MB-231, with HT-29, in the experiment on MDA-N, with HL-60 and in the experiment with RPMI-8226 was > 10 µM (inactive) throughout.
For the molecule `C/C(=N/S(=O)(=O)c1ccc(Cl)c(Cl)c1)OCC(C)(C)C`, the GI50 in the experiment on OVCAR-8, in the experiment with NCI-H522, in the experiment on SK-MEL-5, in the experiment with PC-3, with NCI-H460 and in the experiment on SN12C was > 100 µM (inactive) in each case. Moreover, the GI50 with NCI-H226, with SK-MEL-2, in the experiment with UO-31, in the experiment with UACC-62, in the experiment with OVCAR-4 and with MDA-MB-231 was > 100 µM (inactive) in each case. Moreover, the GI50 in the experiment on HT-29 is > 100 µM (inactive); with A498 it was > 100 µM (inactive); in the experiment with SF-539, > 100 µM (inactive); with MDA-N, > 100 µM (inactive); in the experiment on HL-60, 6.98 µM (inactive); with OVCAR-3, > 100 µM (inactive). For the same molecule, the GI50 in the experiment on RPMI-8226 is > 100 µM (inactive).
As to `CC(NNC(=O)CC(=O)N(C(=O)c1ccccc1)c1ccc(Cl)cc1)c1cc2ccccc2oc1=O` (stereo not given), the GI50 in the experiment on OVCAR-8, in the experiment with NCI-H522, in the experiment with SK-MEL-5, in the experiment with PC-3, in the experiment on NCI-H460 and in the experiment on SN12C was > 10 µM (inactive) in each case. In addition, the GI50 in the experiment on NCI-H226 was > 10 µM (inactive); with SK-MEL-2, > 10 µM (inactive); with UO-31, 0.0995 µM (active); in the experiment on UACC-62, > 10 µM (inactive); with OVCAR-4 it was > 10 µM (inactive); in the experiment on MDA-MB-231, > 10 µM (inactive). Also, the GI50 with HT-29, in the experiment with A498, with SF-539, in the experiment with MDA-N, in the experiment with HL-60 and with OVCAR-3 was > 10 µM (inactive) each time. The GI50 in the experiment on RPMI-8226 was > 10 µM (inactive).
